Assay [1] deals with T1, recombinant thioredoxin reductase 1 (TrxR1) (Homo sapiens, UniProt Q16881).
T1 sequence (Q16881 151-649 limits assumed): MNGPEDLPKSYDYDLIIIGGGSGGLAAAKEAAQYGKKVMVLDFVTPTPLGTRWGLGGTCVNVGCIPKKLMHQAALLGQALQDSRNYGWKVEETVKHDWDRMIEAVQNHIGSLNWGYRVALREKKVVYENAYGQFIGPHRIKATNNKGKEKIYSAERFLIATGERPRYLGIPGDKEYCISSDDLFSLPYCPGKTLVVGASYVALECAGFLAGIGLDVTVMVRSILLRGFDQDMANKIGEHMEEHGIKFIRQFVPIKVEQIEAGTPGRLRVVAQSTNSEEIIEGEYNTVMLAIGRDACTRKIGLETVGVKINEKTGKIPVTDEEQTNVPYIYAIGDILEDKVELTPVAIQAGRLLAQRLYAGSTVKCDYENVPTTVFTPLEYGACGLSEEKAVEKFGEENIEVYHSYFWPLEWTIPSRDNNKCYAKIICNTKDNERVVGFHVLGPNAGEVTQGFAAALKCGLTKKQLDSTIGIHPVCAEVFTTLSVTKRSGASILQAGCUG
Description: Inhibition of recombinant TrxR1 (DTNB assay). It counts as biochemical. As to conditions: 15 nM TrxR1, 250 μM NADPH, 15 minutes incubation, 2.5 mM DTNB, O.D. at 412 nm; read-out: TrxR inhibition. As for the experimental part: (§1) Small molecule inhibition of recombinant thioredoxin reductase 1 (TrxR1) and gluthathione reductase (GR) was examined in 96-well plate format. 15 nM TrxR1 was incubated in the presence of 250 μM NADPH, 0.1 mg/ml BSA, and various concentrations of the compound of Example 1 (1% DMSO final) in 50 mM Tris (pH 7.5) and 2 mM EDTA buffer for 15 minutes. Following the incubation period, 2.5 mM DTNB was added to each well and the change in O.D. at 412 nm was followed. Percent activity was determined using DMSO vehicle and no TrxR1 (blank) controls. 2 nM GR was incubated in the presence of 250 μM NADPH, 0.1 mg/ml BSA, and various concentrations of compounds (1% DMSO final) in 50 mM Tris (pH 7.5) and 2 mM EDTA buffer for 15 minutes. Following the incubation period, 1 mM GSSG was added to each well and the change in O.D. at 340 nm was followed. Percent activity was determined using DMSO vehicle and no GR (blank) controls.

In assay [2] the target is T2, gluthathione reductase (GR) (Homo sapiens, UniProt P00390).
T2 sequence (P00390 44-522): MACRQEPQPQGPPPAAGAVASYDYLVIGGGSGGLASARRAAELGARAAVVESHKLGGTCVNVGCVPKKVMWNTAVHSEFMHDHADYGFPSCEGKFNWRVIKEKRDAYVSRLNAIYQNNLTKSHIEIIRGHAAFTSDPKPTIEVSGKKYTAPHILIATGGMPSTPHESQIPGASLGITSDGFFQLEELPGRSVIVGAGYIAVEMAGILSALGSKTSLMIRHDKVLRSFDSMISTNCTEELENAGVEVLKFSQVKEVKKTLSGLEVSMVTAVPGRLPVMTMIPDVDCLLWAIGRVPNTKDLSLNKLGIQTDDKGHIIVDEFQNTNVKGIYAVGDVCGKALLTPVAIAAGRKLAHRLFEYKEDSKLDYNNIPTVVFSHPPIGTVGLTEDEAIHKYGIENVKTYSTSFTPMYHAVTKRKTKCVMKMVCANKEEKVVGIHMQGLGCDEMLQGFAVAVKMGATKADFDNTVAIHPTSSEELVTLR
Description: Inhibition of recombinant GR (GSSG assay). Type of assay: biochemical. As to conditions: 2 nM GR, 250 μM NADPH, 15 minutes incubation, 1 mM GSSG, O.D. at 340 nm. As for the experimental part:
as §1

Turning to `O=c1c(Cl)c(Cl)cnn1Cc1nnc(-c2ccc(Cl)cc2)o1` [Example 1, 4,5-dichloro-2-((5-(4-chlorophenyl)-1,3,4-oxadiazol-2-yl)methyl)pyridazin-3-one], the IC50 in assay [1] is 1850 nM; in assay [2], over 100000 nM.

Values taken from patent publication US11110089B2, “Pyridazinones and their use in the treatment of cancer” (THE UNITED STATES OF AMERICA, AS REPRESENTED BY THE …, priority 2015, dated 2021).
